Source: the supplement of paper PMC6045584
± gives the standard deviation of the averaged measurements.

Each test system was assayed with CC(=O)O[C@H]1C(=O)[C@@]2(C)[C@H]([C@H](OC(=O)c3ccccc3)[C@]3(O)C[C@H](OC(=O)[C@H](O)[C@@H](NC(=O)c4ccccc4)c4ccccc4)C(C)=C1C3(C)C)[C@]1(OC(C)=O)CO[C@@H]1C[C@@H]2O [PACLITAXEL] (assay: surviving fraction relative to DMSO-only wells; higher = less growth inhibition). Settings: 500 nM; exposure time: 5 days.
Summary of the method: (§1)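 Inhibitors were tested at 0.5, 1, 5, 10, 50, 100, 500 and 1000 nM, applied continuously for five days beginning 24 hours after log-phase tumour cells were seeded at 250–500 per well in 384-well plates. CellTiter-Glo luminescence served as the viability measure, expressed as surviving fraction against the median of DMSO-only wells. Each line, screened three times, was kept only with replicate Pearson r >0.7 and median Z' >0.3.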

| Test System | surviving fraction |
| --- | --- |
| DU4475 BREAST | 0.0463 ± 0.02 |
| SKBR3 BREAST | 0.123 ± 0.015 |
| SUM149 BREAST | 0.0337 ± 0.006 |

Same assay, conditions: 1000 nM; exposure time: 5 days

| Test System | surviving fraction |
| --- | --- |
| U2OS BONE | 0.059 ± 0.001 |
| H23 LUNG | 0.089 ± 0.003 |
| DU4475 BREAST | 0.035 ± 0.0085 |
| SKBR3 BREAST | 0.136 ± 0.028 |
| SUM149 BREAST | 0.0307 ± 0.0023 |

What follows are test systems tested with C[C@]1(O)C[C@@H](c2nc(-c3ccc4ccc(-c5ccccc5)nc4c3)c3c(N)nccn32)C1 [OSI-906] in the same assay as above. Settings: 0.5 nM; exposure time: 5 days.
Summary of the method: as §1

| Test System | surviving fraction |
| --- | --- |
| U2OS BONE | 0.979 ± 0.038 |
| H23 LUNG | 0.902 ± 0.047 |
| DU4475 BREAST | 0.863 ± 0.18 |
| SKBR3 BREAST | 0.752 ± 0.012 |
| SUM149 BREAST | 0.923 ± 0.08 |

Same assay, conditions: 1 nM; exposure time: 5 days

| Test System | surviving fraction |
| --- | --- |
| U2OS BONE | 0.949 ± 0.031 |
| H23 LUNG | 0.897 ± 0.044 |
| DU4475 BREAST | 0.825 ± 0.18 |
| SKBR3 BREAST | 0.765 ± 0.027 |
| SUM149 BREAST | 0.951 ± 0.079 |

Same assay, conditions: 5 nM; exposure time: 5 days

| Test System | surviving fraction |
| --- | --- |
| U2OS BONE | 0.958 ± 0.013 |
| H23 LUNG | 0.931 ± 0.05 |
| DU4475 BREAST | 0.726 ± 0.089 |
| SKBR3 BREAST | 0.814 ± 0.11 |
| SUM149 BREAST | 0.839 ± 0.035 |

Same assay, conditions: 10 nM; exposure time: 5 days

| Test System | surviving fraction |
| --- | --- |
| U2OS BONE | 0.939 ± 0.021 |
| H23 LUNG | 0.904 ± 0.03 |
| DU4475 BREAST | 0.786 ± 0.12 |
| SKBR3 BREAST | 0.841 ± 0.0095 |
| SUM149 BREAST | 0.79 ± 0.035 |

Same assay, conditions: 50 nM; exposure time: 5 days

| Test System | surviving fraction |
| --- | --- |
| U2OS BONE | 0.967 ± 0.038 |
| H23 LUNG | 0.879 ± 0.031 |
| DU4475 BREAST | 0.785 ± 0.18 |
| SKBR3 BREAST | 1.05 ± 0.11 |
| SUM149 BREAST | 0.827 ± 0.2 |

Same assay, conditions: 100 nM; exposure time: 5 days

| Test System | surviving fraction |
| --- | --- |
| U2OS BONE | 0.914 ± 0.026 |
| H23 LUNG | 0.848 ± 0.061 |
| DU4475 BREAST | 0.553 ± 0.043 |
| SKBR3 BREAST | 0.871 ± 0.11 |
| SUM149 BREAST | 0.782 ± 0.082 |

Same assay, conditions: 500 nM; exposure time: 5 days

| Test System | surviving fraction |
| --- | --- |
| U2OS BONE | 0.872 ± 0.026 |
| H23 LUNG | 0.662 ± 0.016 |
| DU4475 BREAST | 0.41 ± 0.024 |
| SKBR3 BREAST | 0.786 ± 0.07 |
| SUM149 BREAST | 0.581 ± 0.078 |

Same assay, conditions: 1000 nM; exposure time: 5 days

| Test System | surviving fraction |
| --- | --- |
| U2OS BONE | 0.863 ± 0.026 |
| H23 LUNG | 0.607 ± 0.03 |
| DU4475 BREAST | 0.36 ± 0.08 |
| SKBR3 BREAST | 0.681 ± 0.062 |
| SUM149 BREAST | 0.553 ± 0.034 |

Each test system was assayed with Cc1ccc(-c2cc(C(F)(F)F)nn2-c2ccc(S(N)(=O)=O)cc2)cc1 [CELECOXIB] in the same assay as above. Settings: 0.5 nM; exposure time: 5 days.
Summary of the method: as §1

| Test System | surviving fraction |
| --- | --- |
| U2OS BONE | 0.98 ± 0.055 |
| H23 LUNG | 1.01 ± 0.018 |
| DU4475 BREAST | 0.894 ± 0.08 |
| SKBR3 BREAST | 1.15 ± 0.096 |
| SUM149 BREAST | 1.1 ± 0.056 |

Same assay, conditions: 1 nM; exposure time: 5 days

| Test System | surviving fraction |
| --- | --- |
| U2OS BONE | 1.03 ± 0.032 |
| H23 LUNG | 1.04 ± 0.062 |
| DU4475 BREAST | 0.836 ± 0.06 |
| SKBR3 BREAST | 1.11 ± 0.11 |
| SUM149 BREAST | 1.09 ± 0.021 |

Same assay, conditions: 5 nM; exposure time: 5 days

| Test System | surviving fraction |
| --- | --- |
| H23 LUNG | 1.04 ± 0.021 |
| DU4475 BREAST | 0.943 ± 0.095 |
| SKBR3 BREAST | 1.019 ± 0.0061 |
| SUM149 BREAST | 1.2 ± 0.035 |

Same assay, conditions: 10 nM; exposure time: 5 days

| Test System | surviving fraction |
| --- | --- |
| U2OS BONE | 1.03 ± 0.048 |
| H23 LUNG | 1.03 ± 0.05 |
| DU4475 BREAST | 0.937 ± 0.014 |
| SKBR3 BREAST | 1.02 ± 0.085 |
| SUM149 BREAST | 1.16 ± 0.057 |

Same assay, conditions: 50 nM; exposure time: 5 days

| Test System | surviving fraction |
| --- | --- |
| U2OS BONE | 1.05 ± 0.032 |
| H23 LUNG | 1.07 ± 0.05 |
| DU4475 BREAST | 0.876 ± 0.051 |
| SKBR3 BREAST | 0.999 ± 0.091 |
| SUM149 BREAST | 1.08 ± 0.021 |

Same assay, conditions: 100 nM; exposure time: 5 days

| Test System | surviving fraction |
| --- | --- |
| U2OS BONE | 1.09 ± 0.016 |
| H23 LUNG | 1.18 ± 0.067 |
| DU4475 BREAST | 0.892 ± 0.12 |
| SKBR3 BREAST | 1.07 ± 0.042 |
| SUM149 BREAST | 1.09 ± 0.13 |

Same assay, conditions: 500 nM; exposure time: 5 days

| Test System | surviving fraction |
| --- | --- |
| U2OS BONE | 1.01 ± 0.016 |
| H23 LUNG | 1.18 ± 0.015 |
| DU4475 BREAST | 0.973 ± 0.18 |
| SKBR3 BREAST | 0.996 ± 0.17 |
| SUM149 BREAST | 1.06 ± 0.04 |

Same assay, conditions: 1000 nM; exposure time: 5 days

| Test System | surviving fraction |
| --- | --- |
| U2OS BONE | 1 ± 0.043 |
| H23 LUNG | 1.16 ± 0.074 |
| DU4475 BREAST | 0.872 ± 0.015 |
| SKBR3 BREAST | 1.08 ± 0.063 |
| SUM149 BREAST | 1.12 ± 0.13 |

What follows are test systems tested with O=C(O)C1(C(=O)O)CCC1.[NH2-].[NH2-].[Pt+2] [CARBOPLATIN] in the same assay as above. Settings: 0.5 nM; exposure time: 5 days.
Summary of the method: as §1

| Test System | surviving fraction |
| --- | --- |
| U2OS BONE | 1.04 ± 0.044 |
| H23 LUNG | 1.06 ± 0.038 |
| DU4475 BREAST | 1.03 ± 0.064 |
| SKBR3 BREAST | 1.01 ± 0.098 |
| SUM149 BREAST | 1.02 ± 0.019 |

Same assay, conditions: 1 nM; exposure time: 5 days

| Test System | surviving fraction |
| --- | --- |
| U2OS BONE | 1.05 ± 0.046 |
| H23 LUNG | 1.08 ± 0.029 |
| DU4475 BREAST | 0.931 ± 0.032 |
| SKBR3 BREAST | 1.06 ± 0.1 |
| SUM149 BREAST | 1.04 ± 0.13 |

Same assay, conditions: 5 nM; exposure time: 5 days

| Test System | surviving fraction |
| --- | --- |
| U2OS BONE | 1.07 ± 0.033 |
| H23 LUNG | 1.07 ± 0.013 |
| DU4475 BREAST | 1.08 ± 0.23 |
| SKBR3 BREAST | 1.06 ± 0.11 |
| SUM149 BREAST | 1.02 ± 0.049 |
